Reference: US6723364B1, “Fog treatment method using a liquid composition for treating fruits and vegetables and implementing device” (Xeda International, priority 1998, dated 2004)
In brackets after ≈: the same amount, converted by molar mass. Read-outs that look alike come from different tables or passages of the source.

Tests used:
potato tubers = assay: Sprouting-inhibiting treatment of potato tubers by thermal fogging; type: in vivo; details: after 5 months; cold room 8 to 9° C.; 45 g/tonne then 15 g/tonne every 20 days by thermal fogging
Method: The effectiveness of eugenol and of isoeugenol in the sprouting-inhibiting treatment of potato tubers was evaluated and compared with that of other terpenes.
The following compositions were used in the case of eucalyptol, eugenol, isoeugenol, limonene, safrole and terpineol:
60% by weight of terpene;
7% by weight of a nonionic emulsifier;
33% by weight of butyl acetate.
In the case of L-carvone, the following composition was employed:
30% by weight of L-carvone;
10% by weight of ethanol;
5% by weight of nonionic emulsifier;
35% by weight of propylene glycol.
Isopropyl chlorophenylcarbamate (CIPC) is a compound used in the art as sprouting inhibitor for potato tubers. Its activity was compared with that of eugenol and of isoeugenol.
The composition based on isopropyl chloro-phenylcarbamate has the following formulation: […]
20% by weight of isopropyl chlorophenyl-carbamate;
50% by weight of propylene glycol;
10% by weight of nonionic emulsifier;
Each of the compositions tested was applied by thermal fogging. The temperature at the outlet of the thermal fogging device was 240° C., except in the case of the compositions based on L-carvone and on CIPC, where it was 180° C.
The amount of composition which has to be applied is calculated in each case so as to obtain an equivalent concentration of active material on the potato tubers.
In this example, repeated applications were carried out by following the following protocol:
45 g/tonne of tubers at the beginning of storage;
15 g/tonne of tubers every 20 days; so that, after 6 months, 165 g of active principle have been applied per tonne of tubers.
During storage, the tubers were stored in a cold room at a temperature of 8 to 9° C.

[1] = tested on: species of fungus (AA, BC, FO, GC, GR, PD, PE, PV, PhP); assay: Fungicidal activity in vitro: total of inhibition grades over the nine species of fungus; type: cell-based; details: sum of the grades over the nine fungi
Method: The Cristomalt medium used for the evaluations of the fungicidal activities comprises 0.1% of Cristomalt (malt extract) and 0.2% of agar.
This culture medium is, after sterilization, brought to 55° C. The terpene compound tested is then introduced in the pure form into the culture medium under warm conditions. Immediately after agitating, the medium, enriched with the terpene product, is poured into Petri dishes (diameter 9 cm, filled with 20 ml of medium). The agar-comprising medium solidifies on cooling. The Petri dishes are then inoculated with plugs, with a diameter of 6 mm, withdrawn from the edge of a culture of the tested fungus, which culture is obtained on Cristomalt medium.
Inoculation is carried out at 22° C.
The mycelial growth was determined periodically (5 to 15 days, according to the species of fungus).
The results obtained are analysed simply by using the assessment scale illustrated in Table 2:
The results obtained have been expressed in Table 3 using the scale in Table 2.

Escherichia coli = assay: Bactericidal activity in vitro in LB agar medium; type: cell-based; details: read-out: MIC (concentration needed to completely inhibit the growth of the bacteria)
Method: The bactericidal activity of eugenol and isoeugenol was evaluated in vitro and compared with that of other terpenes.
The culture medium used is the following LB medium:
Bactotryptone: 1% by weight
Yeast extract: 0.5% by weight
A suspension of bacteria at 10^6 CFU/ml was prepared in sterilized water from the LB medium. 200 μl of this bacterial suspension were added to 20 ml of presterilized LB culture medium brought to 55° C. The tested terpene is then added to the culture medium. After agitation, the medium is immediately divided among Petri dishes. The medium solidifies on cooling.
Incubation is carried out at 28° C. when the bacterium is Erwinia carotovora and at 37° C. when the bacterium is Escherichia coli.
The growth of mould in the culture medium is observed. The same experiment is carried out in the absence of terpene (control experiment).
The protocol used is that described above.

spores = assay: Germination of the spores in vitro, summary over the fungi tested; type: cell-based; details: summary of Tables 4 to 6
Method: The activity of eugenol and of isoeugenol on the germination of the spores was evaluated in vitro and compared with that of other terpenes.
The procedure of Example 4 is used to do this, except that the concentration of eugenol and of isoeugenol was set at x μg/ml in the culture media used and that 50 μl of a suspension of spores, adjusted to 100,000 spores/ml, are deposited in each Petri dish.
The same experiment was carried out starting with a terpene-free culture medium (control test).
The results obtained for 3 different concentrations of terpenes in the culture medium, namely 40 μg/ml, 80 μg/ml and 1280 μg/ml, are listed in Tables 4, 5 and 6.
A concentration of 40 μg/ml is sufficient to inhibit the germination of the spores.

Structure (SMILES) | Loss in weight of the tubers (potato tubers) [%] | Total weight of the sprouts >2 mm (potato tubers) [g] | Tubers at the white point stage (potato tubers) [%] | Tubers with sprouts 2 to 5 mm (potato tubers) [%] | Tubers with sprouts <2 mm (potato tubers) [%] | Tubers with sprouts >2 mm (potato tubers) [%] | Tubers with sprouts >5 mm (potato tubers) [%] | Unsprouted tubers (potato tubers) [%] | Total of the degrees of inhibition [1] | MIC (Escherichia coli; Escherichia sp., 37° C.) [µg/mL] | concentration sufficient to inhibit the germination of the spores (spores) [µg/mL] | MIC (Escherichia coli) [µg/mL]
CC12CCC(CC1)C(C)(C)O2 [EUCALYPTOL, eucalyptol] | 3.2 | 46.2 | 10.2 | 36.3 | 26.7 | 58.4 | 22.4 | 4.4 | 20 | > 640 | – | –
C=C(C)C1CC=C(C)C(=O)C1 (centres unmarked) [CARVONE, carvone] | – | – | – | – | – | – | – | – | 52 | 320 to 640 (≈ 2130 to 4260 µM) | – | –
CC=Cc1ccc(O)c(OC)c1 [ISOEUGENOL, isoeugenol] | 2.7 | 8.5 | 22.6 | 10.6 | 56.8 | 14.4 | 3.8 | 6.2 | 64 | 40 to 80 (≈ 244 to 487 µM) | 40 | –
C=CCc1ccc(O)c(OC)c1 [EUGENOL, eugenol] | 2.6 | 3.6 | 45.3 | 6.2 | 35.2 | 12.0 | 5.8 | 7.5 | 63 | 40 to 80 (≈ 244 to 487 µM) | 40 | –
C=CCc1ccc2c(c1)OCO2 [SAFROLE, safrole] | 3.6 | 57.0 | 6.6 | 40.1 | 15.6 | 76.6 | 36.5 | 1.2 | 42 | – | – | > 640
